ChEMBL document CHEMBL2157959, “Reactive metabolites of desipramine and clomipramine: The kinetics of formation and reactivity with DNA” (Bioorg Med Chem, 2012)

What was measured:
[1] = Drug metabolism in water assessed as formation of reactive intermediate during drug oxidation at 1 mM in the presence of HRP and H2O2 UV/vis spectrophotometry; format: physicochemical; settings: buffer, 1000 µM
[2] = Drug metabolism in water assessed as formation of 3-chloroiminodibenzyl in the presence of HRP and H2O2 UV/Vis spectrophotometry; format: physicochemical; settings: buffer
[3] = Induction of DNA degradation in calf thymus DNA at 0.5 mM after 1 hr by agarose gel electrophoresis in presence of HRP and H2O2; settings: cattle, 500 µM
[4] = Induction of DNA degradation in calf thymus DNA at 2 mM after 2 hrs by PCI extraction-based spectrophotometric analysis in presence of HRP and H2O2; settings: cattle, 2000 µM
[5] = Drug metabolism in sorensen buffer assessed as formation of reactive intermediate during drug oxidation at 92 uM at pH 7.4 up to 24 mins in the presence of HRP and H2O2 by UV/vis spectrophotometry; format: physicochemical; settings: pH 7.4, 0.4 h
[6] = Drug metabolism in sorensen buffer assessed as iminodibenzyl formation at pH 7.4 in the presence of HRP and H2O2 by GC/MS analysis; format: physicochemical
[7] = system: HRP (horseradish peroxidase); test: Drug metabolism in sorensen buffer assessed as apparent Km for drug oxidation measured for 20 mins by Michaelis-Menten equation analysis in presence of HRP and H2O2; format: physicochemical; settings: horseradish peroxidase (HRP) with H2O2 in Sorensen buffer
[8] = Drug metabolism in sorensen buffer assessed as formation of reactive intermediate during drug oxidation at 92 uM at pH 7.4 up to 24 mins in the presence of HRP by UV/vis spectrophotometry; format: physicochemical; settings: pH 7.4, 0.4 h
[9] = Drug metabolism in sorensen buffer assessed as formation of reactive intermediate during drug oxidation at 92 uM at pH 7.4 up to 24 mins in the presence of H2O2 by UV/vis spectrophotometry; format: physicochemical; settings: pH 7.4, 0.4 h

SMILES	Drug metabolism [1]	Drug metabolism [2]	Activity [3]	Activity [4]	Drug metabolism [5]	Drug metabolism [6]	Km at 20 min [7] [mM]	Drug metabolism [8]	Drug metabolism [9]
CN(C)CCCN1c2ccccc2CCc2ccc(Cl)cc21.Cl [CLOMIPRAMINE HYDROCHLORIDE]	Active	Active	Toxic	Toxic					
CNCCCN1c2ccccc2CCc2ccccc21.Cl [DESIPRAMINE HYDROCHLORIDE]			Toxic	Toxic	Active	Active	4.4	Not Active	Not Active
